Results as given in patent publication US11103605B2, “PET-imaging immunomodulators” (BRISTOL-MYERS SQUIBB COMPANY, priority 2016, dated 2021).
Where “and” joins values, the source holds several entries; their conditions need not be identical. Equal values may be shown once.

Columns and labels:
in vivo = details: mouse, hPD-L1(−) HT-29 xenograft tumor, iv, total radioactivity
Method: In this experiment, the [^18F]labelled macrocyclic PD-L1 peptide was produced as described in the above Examples, was tested for its ability to discriminate between hPD-L1-positive tumors and hPD-L1-negative tumors in mice.
Mice bearing bilateral xenograft tumors were produced by introducing 2×10^6 hPD-L1(+) L2987 human lung carcinoma cells and 4×10^6 hPD-L1(−) HT-29 human colon carcinoma cells subcutaneously on opposite sides of the mouse. Once tumors reached approximately 300 mm^3 (approximately 2-3 weeks after cell implantation), animals were selected for imaging. The body weight and tumor size of each study were measured and recorded on the imaging day before imaging procedure. Mice were placed in an anesthetic induction chamber and 3% isoflurane inhalant anesthesia was delivered in 100% O2 at a rate of 1-1.5 L/min. […] Mouse respiration was continuously monitored during imaging procedures and isoflurane may be adjusted dependent on depth of anesthesia. […] Time-activity curves were calculated for each ROI to yield a quantitative view of radiotracer within the tumor volume over the course of the 2 hour emission image. […]

[1] = PET imaging in non-human primate, baseline and blocking study; details: male, cynomolgus monkey, iv, total radioactivity
Method: Cynomolgus male monkeys with a previously installed vascular access port (VAP) were anesthetized with 0.02 mg/kg atropine, 5 mg/kg Telazol and 0.01 mg/kg buprenorphine I.M. (all drawn into a single syringe). An i.v. catheter is then placed in the cephalic vessel for fluid administration during the imaging procedure to maintain hydration. Animals were intubated with an endotracheal tube—usually 3.0 mm and transferred to the imaging bed of a microPET® F220TM PET instrument (Siemens Preclinical Solutions, Knoxville, Tenn.). Anesthesia was maintained with isoflurane and oxygen and I.V. fluids (LRS) were administered at a rate of 6 ml/kg/hr during the imaging procedure. As the axial field of view of the microPET® F220™ instrument is only 7.6 cm, images over 5 distinct bed positions were acquired to create a composite image of the animals from just above the heart through approximately the pelvis.
For each field of view, a 10 minute transmission image was first acquired using a ^57Co point source for the purpose of attenuation correction of the final PET images. Once transmission images were acquired for all bed positions, approximately 1.7 mCi (approximately 0.12 μg/kg) of the [^18F]labelled macrocyclic PD-L1 peptide radiotracer was administered via the installed VAP. 5 minute duration emission scans were then sequentially acquired for each bed position, beginning at position 1 centered approximately at the heart and moving toward the pelvis of the animal. Once images were acquired at each position (1 through 5), the imaging bed was moved back to bed position 1 and the process was repeated. Using this procedure, a total of 5 distinct images were acquired for each bed position over the duration of the imaging study.
Individual images were reconstructed using a filtered back projection (FBP) algorithm with attenuation correction using the collected transmission images and corrected for radioisotope decay. Final composite images were then produced by aligning images from all 5 bed positions obtained from a single pass (i.e. a single composite image was produced from each set of sequential images from bed positions 1 through 5) covering the duration of the imaging study. […] To determine the nature of the specific binding in the cynomolgus monkey spleen a blocking study was conducted in the following manner.
The cynomolgus monkey (4.4 kg, male) received a single IV injection of [^18F]labelled macrocyclic PD-L1 peptide radiotracer (˜1.7 mCi, mass: 0.21 μg/kg) at baseline. On the following day (post-dose), the same NHP received a single SC dose of 2 mg/kg anti-PD-L1 binding macrocyclic peptide at 2 hours before radiotracer injection (˜1.7 mCi, mass: 0.12 μg/kg).

[2] = tested on: hPD-L1(+) L2987 human lung carcinoma xenografts; experiment: PET imaging of mice bearing bilateral xenograft tumors: hPD-L1(+) tumor; assay type: in vivo, mouse; details: for SUV in L2987: individual mice
Method: (§1) Mice bearing bilateral xenograft tumors were produced by introducing 2×10^6 hPD-L1(+) L2987 human lung carcinoma cells and 4×10^6 hPD-L1(−) HT-29 human colon carcinoma cells subcutaneously on opposite sides of the mouse. Once tumors reached approximately 300 mm^3 (approximately 2-3 weeks after cell implantation), animals were selected for imaging. The body weight and tumor size of each study were measured and recorded on the imaging day before imaging procedure. Mice were placed in an anesthetic induction chamber and 3% isoflurane inhalant anesthesia was delivered in 100% O2 at a rate of 1-1.5 L/min. Once sedated, mice were removed from the induction chamber and placed into a plexiglass 4-chamber mouse hotel (custom-made by BMS-Applied Biotechnology group), while continuing to receive 1-1.5% isoflurane inhalant anesthesia and delivered in 100% O2 at a rate of 2 L/min via the nose-cone. Animal were kept warm using an external standalone temperature regulating unit (M2M Imaging Corp) to prevent hypothermia during imaging. Mouse respiration was continuously monitored during imaging procedures and isoflurane may be adjusted dependent on depth of anesthesia. Mice were then placed into a custom animal holder with capacity for 4 animals, where they remained under anesthesia for the duration of the study. The animal holder was transferred to the microPET® F120™ scanner (Siemens Preclinical Solutions, Knoxville, Tenn.). The axial field of view of this instrument is 7.6 cm. With this limitation, animals were positioned such that the scanning region was from immediately in front of the eyes to approximately the base of the tail. A 10-minute transmission image was first acquired using a ^57Co point source for the purpose of attenuation correction of the final PET images. Following the transmission scan, radiotracer solutions were administered via the previously installed tail vein catheters and a 2 hour emission image was acquired. Injected radiotracer solutions were injected into a total 8 mice (body weight: 22.2±2.0 gram) with tumor volumes 203.0±51.4 mm^3 for HT-29 and 422.9±128.4 mm^3 for L2987 were imaged 16-17 days post cell implantation. Each mouse received a single injection of SC dose of PD-L1 binding macrocyclic peptide 60 mg/kg (N=4) or saline (N=4) 30 minute before the [^18F]labelled macrocyclic PD-L1 peptide (124.0±8.4 μCi, tracer mass: 1.0±0.4 μg/kg) IV injection. Images were reconstructed using a maxiumum a posteriori (MAP) algorithm with attenuation correction using the collected transmission images and corrected for radioisotope decay. In the final images, regions of interest (ROIs) were drawn around the tumor boundary using ASIPro software (Siemens Preclinical Solutions). Time-activity curves were calculated for each ROI to yield a quantitative view of radiotracer within the tumor volume over the course of the 2 hour emission image. For final comparison, individual time-activity curves were normalized based on the injected radiotracer dose for each specific animal. Radiotracer uptake was compared across tumors using the final 10 minutes of each time-activity curve (90-100 minutes post-radiotracer injection).

[3] = as above; assay type: in vivo, mouse; details: mouse, hPD-L1(+) L2987 xenograft tumor, iv, total radioactivity, mean of 4 mice
Method: as §1

With CCCC[C@H]1C(=O)N(C)[C@@H](CCCC)C(=O)N[C@@H](CC(C)C)C(=O)N[C@H](C(=O)NCC(=O)N[C@@H](Cc2cn(CCOCCOCCOCCOc3cccnc3[18F])nn2)C(=O)O)CSCC(=O)N[C@@H](Cc2ccc(O)cc2)C(=O)N(C)[C@@H](C)C(=O)N[C@@H](CC(N)=O)C(=O)N2CCC[C@H]2C(=O)N[C@@H](CN)C(=O)N[C@@H](CC(C)C)C(=O)N2C[C@H](O)C[C@H]2C(=O)N[C@@H](Cc2c[nH]c3ccccc23)C(=O)N[C@@H](CCN)C(=O)N[C@@H](Cc2cn(CC(=O)O)c3ccccc23)C(=O)N1C [[^18F]labelled macrocyclic PD-L1 peptide] the SUV (in vivo; 1 ug/kg) was 0.037 SUV, the SUV (in vivo; 60 mg/kg) was 0.071 SUV and the SUV ([1]; duodenum, 0.21 ug/kg) was 8.84 SUV. It also gave an SUV ([1]; duodenum, 2 mg/kg) of 8.76 SUV, an SUV ([1]; gallbladder, 0.21 ug/kg) of 2.78 SUV and an SUV ([1]; gallbladder, 2 mg/kg) of 1.13 SUV. The SUV ([1]; kidney cortex, 0.21 ug/kg) was 8.42 SUV, the SUV ([1]; kidney cortex, 2 mg/kg) was 10.8 SUV and the SUV ([1]; kidney pelvis, 0.21 ug/kg) was 8.86 SUV. The SUV ([1]; kidney pelvis, 2 mg/kg) was 24.1 SUV, the SUV ([1]; liver, 0.21 ug/kg) was 9.16 SUV and the SUV ([1]; liver, 2 mg/kg) was 3.17 SUV. The SUV ([1]; lung, 0.21 ug/kg) was 1.86 SUV, the SUV ([1]; lung, 2 mg/kg) was 0.793 SUV and the SUV ([1]; muscle, 0.21 ug/kg) was 0.521 SUV. It also gave an SUV ([1]; muscle, 2 mg/kg) of 0.341 SUV, an SUV ([1]; spleen, 0.21 ug/kg) of 19.7 SUV and an SUV ([1]; spleen, 2 mg/kg) of 1.42 SUV. The SUV ([1]; thymus, 0.21 ug/kg) was 1.99 SUV, the SUV ([1]; thymus, 2 mg/kg) was 0.931 SUV and the “radiotracer uptake in hPD-L1(+) L2987 xenografts relative to hPD-L1(−) HT-29 xenografts” value ([2]; SC 60 mg/kg PD-L1 binding macrocyclic peptide 30 minutes before radiotracer) was 0.7 ×. For the same compound, the “radiotracer uptake in hPD-L1(+) L2987 xenografts relative to hPD-L1(−) HT-29 xenografts” value ([2]; animals receiving only the radiotracer) was 8.1 ×, the “SUV in L2987” value ([2]; 60 mg/kg PD-L1 binding macrocyclic peptide SC 30 min before tracer IV, 60 mg/kg) was 0.060 and 0.055 and 0.042 and 0.043 and the “SUV in L2987” value ([2]; saline (0 mg/kg PD-L1 binding macrocyclic peptide) SC 30 min before tracer IV, 90-100 minutes post-radiotracer injection) was 0.231 and 0.452 and 0.297 and 0.213. For the same compound, the SUV ([3]; 1 ug/kg, saline predose) was 0.298 SUV and the SUV ([3]; 60 mg/kg PD-L1 binding macrocyclic peptide predose) was 0.05 SUV.
